Experimental data from PubChem BioAssay AID342 (DTP/NCI, 2004).
“And” between values parts separate entries of the source, which are not always exact repeats. Equal entries are not always repeated.

Tested on: Swiss mice, Sarcoma 180 sc, mean tumor weight T/C
Assay: NCI In Vivo Anticancer Drug Screen. Data for tumor model Sarcoma 180 (subcutaneous) in Swiss mice
Settings: endpoint: mean tumor weight, higher = larger tumour
Procedure, shortened: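 Readout is the ratio of treated-group measurement to vehicle-control measurement (T/C), based on survival or tumor size in mice carrying transplanted tumors.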

[1] = dose: 0.4 mg/kg/injection, schedule: Q01DX007 (ip), vehicle: saline

CC(=O)OC(C)(C)/C=C/C(=O)[C@](C)(O)[C@H]1[C@H](O)C[C@@]2(C)[C@@H]3CC=C4[C@@H](C[C@H](O)C(=O)C4(C)C)[C@]3(C)C(=O)C[C@]12C
T/C [1]: 58 % of control
T/C (dose: 0.8 mg/kg/injection, schedule: Q01DX007 (ip), vehicle: saline): 84 % of control

CSCS(=O)C[C@H](CO)NC(=O)/C=C/c1c(C)[nH]c(=O)[nH]c1=O (some centres not stated)
T/C (dose: 0.03 mg/kg/injection, schedule: Q#A X014 (ip), vehicle: saline): 64 % of control
T/C (dose: 0.06 mg/kg/injection, schedule: Q01DX007 (ip), vehicle: saline): 81 % of control
T/C (dose: 0.06 mg/kg/injection, schedule: Q01DX007 (sc), vehicle: saline): 107 % of control
T/C (dose: 0.06 mg/kg/injection, schedule: Q#A X014 (ip), vehicle: saline): 54 % of control
T/C (dose: 0.12 mg/kg/injection, schedule: Q#A X014 (ip), vehicle: saline): 44 % of control
T/C (dose: 0.13 mg/kg/injection, schedule: Q01DX007 (ip), vehicle: saline): 50 % of control
T/C (dose: 0.13 mg/kg/injection, schedule: Q01DX007 (sc), vehicle: saline): 81 % of control
T/C (dose: 0.19 mg/kg/injection, schedule: Q03DX003 (ip), vehicle: saline): 88 % of control
T/C (dose: 0.25 mg/kg/injection, schedule: Q01DX007 (ip), vehicle: saline): 39 % of control
T/C (dose: 0.25 mg/kg/injection, schedule: Q01DX007 (iv), vehicle: saline): 87 % of control
T/C (dose: 0.25 mg/kg/injection, schedule: Q01DX007 (oral), vehicle: saline): 97 % of control
T/C (dose: 0.25 mg/kg/injection, schedule: Q01DX007 (sc), vehicle: saline): 78 % of control
T/C (dose: 0.25 mg/kg/injection, schedule: Q#A X014 (ip), vehicle: saline): 42 % of control
T/C (dose: 0.38 mg/kg/injection, schedule: Q03DX003 (ip), vehicle: saline): 76 % of control
T/C (dose: 0.4 mg/kg/injection, schedule: Q#A X014 (ip), vehicle: carboxymethylcellulose (CMC)): 58 % of control
T/C (dose: 0.5 mg/kg/injection, schedule: Q01DX007 (ip), vehicle: saline): 32 % of control
T/C (dose: 0.5 mg/kg/injection, schedule: Q01DX007 (iv), vehicle: saline): 86 % of control
T/C (dose: 0.5 mg/kg/injection, schedule: Q01DX007 (oral), vehicle: saline): 106 % of control
T/C (dose: 0.5 mg/kg/injection, schedule: Q01DX007 (sc), vehicle: saline): 17 % of control
T/C (dose: 0.62 mg/kg/injection, schedule: Q#A X014 (ip), vehicle: carboxymethylcellulose (CMC)): 27 % of control
T/C (dose: 0.75 mg/kg/injection, schedule: Q#A X014 (ip), vehicle: carboxymethylcellulose (CMC)): 20 % of control
T/C (dose: 1.0 mg/kg/injection, schedule: Q01DX007 (iv), vehicle: saline): 58 % of control
T/C (dose: 1.0 mg/kg/injection, schedule: Q01DX007 (oral), vehicle: saline): 59 % of control
T/C (dose: 1.5 mg/kg/injection, schedule: Q03DX003 (ip), vehicle: saline): 89 % of control
T/C (dose: 2.0 mg/kg/injection, schedule: Q01DX007 (oral), vehicle: saline): 99 % of control
T/C (dose: 62.5 mg/kg/injection, schedule: Q#A X014 (ip), vehicle: carboxymethylcellulose (CMC)): 79 % of control
T/C (dose: 125.0 mg/kg/injection, schedule: Q#A X014 (ip), vehicle: carboxymethylcellulose (CMC)): 74 % of control

NNC(=O)c1ccncc1
T/C (dose: 7.5 mg/kg/injection, schedule: Q#A X014 (ip), vehicle: carboxymethylcellulose (CMC)): 112 % of control
T/C (dose: 15.0 mg/kg/injection, schedule: Q#A X014 (ip), vehicle: carboxymethylcellulose (CMC)): 105 % of control
T/C (dose: 30.0 mg/kg/injection, schedule: Q#A X014 (ip), vehicle: carboxymethylcellulose (CMC)): 101 % of control
T/C (dose: 60.0 mg/kg/injection, schedule: Q#A X014 (ip), vehicle: carboxymethylcellulose (CMC)): 74 % of control

CC1=C2C(=CC(C)(C)[C@@H]2O)C(=O)[C@](C)(O)C12CC2
T/C (dose: 0.1 mg/kg/injection, schedule: Q01DX007 (ip), vehicle: saline): 63 % of control
T/C (dose: 0.2 mg/kg/injection, schedule: Q01DX007 (ip), vehicle: saline): 25 % of control
T/C (dose: 0.3 mg/kg/injection, schedule: Q01DX007 (ip), vehicle: saline): 57 % of control
T/C [1]: 28 % of control
T/C (dose: 25.0 micrograms/kg/injection, schedule: Q01DX007 (ip), vehicle: saline): 70 % of control
T/C (dose: 50.0 micrograms/kg/injection, schedule: Q01DX007 (ip), vehicle: saline): 102 % of control
T/C (dose: 100.0 micrograms/kg/injection, schedule: Q01DX007 (ip), vehicle: saline): 84 % of control
T/C (dose: 200.0 micrograms/kg/injection, schedule: Q01DX007 (ip), vehicle: saline): 100 % of control

CCC(=O)OCC1OC(n2cnc3c(=S)nc(N)[nH]c32)C(OC(=O)CC)C1OC(=O)CC (configuration not stated)
T/C (dose: 1.0 mg/kg/injection, schedule: Q01DX007 (ip), vehicle: carboxymethylcellulose (CMC)): 61 % of control
T/C (dose: 2.0 mg/kg/injection, schedule: Q01DX007 (ip), vehicle: carboxymethylcellulose (CMC)): 65 % of control
T/C (dose: 5.0 mg/kg/injection, schedule: Q01DX007 (ip), vehicle: carboxymethylcellulose (CMC)): 57 % of control and 58 % of control
T/C (dose: 11.0 mg/kg/injection, schedule: Q01DX007 (ip), vehicle: carboxymethylcellulose (CMC)): 22 % of control

O=C(c1ccccc1)C(C(=O)c1ccccc1)C(=O)c1ccccc1.O=C(c1ccccc1)C(C(=O)c1ccccc1)C(=O)c1ccccc1.[Cu]
T/C (dose: 55.0 mg/kg/injection, schedule: Q01DX007 (ip), vehicle: carboxymethylcellulose (CMC)): 68 % of control and 70 % of control
T/C (dose: 85.0 mg/kg/injection, schedule: Q01DX007 (ip), vehicle: carboxymethylcellulose (CMC)): 63 % of control and 84 % of control
T/C (dose: 190.0 mg/kg/injection, schedule: Q01DX007 (ip), vehicle: carboxymethylcellulose (CMC)): 60 % of control and 64 % of control
T/C (dose: 284.0 mg/kg/injection, schedule: Q01DX007 (ip), vehicle: carboxymethylcellulose (CMC)): 66 % of control

[Cl][Pt+2]([Cl])([Cl])[Cl].[Na+].[S-]c1ncnc2nc[nH]c12.[S-]c1ncnc2nc[nH]c12
T/C (dose: 1.1 mg/kg/injection, schedule: Q01DX007 (ip), vehicle: carboxymethylcellulose (CMC)): 92 % of control
T/C (dose: 10.0 mg/kg/injection, schedule: Q01DX007 (ip), vehicle: carboxymethylcellulose (CMC)): 45 % of control
T/C (dose: 19.0 mg/kg/injection, schedule: Q01DX007 (ip), vehicle: carboxymethylcellulose (CMC)): 74 % of control
T/C (dose: 20.0 mg/kg/injection, schedule: Q01DX007 (ip), vehicle: carboxymethylcellulose (CMC)): 40 % of control
T/C (dose: 22.0 mg/kg/injection, schedule: Q#A X014 (ip), vehicle: methylcellulose (MC)): 47 % of control and 50 % of control
T/C (dose: 22.2 mg/kg/injection, schedule: Q#A X014 (ip), vehicle: carboxymethylcellulose (CMC)): 29 % of control
T/C (dose: 29.0 mg/kg/injection, schedule: Q01DX007 (ip), vehicle: carboxymethylcellulose (CMC)): 43 % of control
T/C (dose: 30.0 mg/kg/injection, schedule: Q01DX007 (ip), vehicle: carboxymethylcellulose (CMC)): 54 % of control
T/C (dose: 33.3 mg/kg/injection, schedule: Q#A X014 (ip), vehicle: carboxymethylcellulose (CMC)): 24 % of control
T/C (dose: 44.0 mg/kg/injection, schedule: Q01DX007 (ip), vehicle: carboxymethylcellulose (CMC)): 38 % of control and 41 % of control
T/C (dose: 50.0 mg/kg/injection, schedule: Q#A X014 (ip), vehicle: carboxymethylcellulose (CMC)): 10 % of control
T/C (dose: 50.0 mg/kg/injection, schedule: Q#A X014 (ip), vehicle: methylcellulose (MC)): 24 % of control and 44 % of control
T/C (dose: 65.0 mg/kg/injection, schedule: Q01DX007 (ip), vehicle: carboxymethylcellulose (CMC)): 28 % of control
T/C (dose: 66.0 mg/kg/injection, schedule: Q01DX007 (ip), vehicle: carboxymethylcellulose (CMC)): 57 % of control
T/C (dose: 75.0 mg/kg/injection, schedule: Q#A X014 (ip), vehicle: carboxymethylcellulose (CMC)): 7 % of control
T/C (dose: 75.0 mg/kg/injection, schedule: Q#A X014 (ip), vehicle: methylcellulose (MC)): 16 % of control and 34 % of control
T/C (dose: 220.0 mg/kg/injection, schedule: Q01DX007 (ip), vehicle: carboxymethylcellulose (CMC)): 11 % of control
T/C (dose: 300.0 mg/kg/injection, schedule: Q01DX007 (ip), vehicle: carboxymethylcellulose (CMC)): 1 % of control

Cc1cc2nc3c(=O)[nH]c(=O)nc-3n(CCOC(=O)CCC(=O)O)c2cc1C
T/C (dose: 14.37 mg/kg/injection, schedule: Q#A X014 (ip), vehicle: carboxymethylcellulose (CMC)): 109 % of control
T/C (dose: 28.75 mg/kg/injection, schedule: Q#A X014 (ip), vehicle: carboxymethylcellulose (CMC)): 122 % of control
T/C (dose: 57.5 mg/kg/injection, schedule: Q#A X014 (ip), vehicle: carboxymethylcellulose (CMC)): 87 % of control
T/C (dose: 115.0 mg/kg/injection, schedule: Q#A X014 (ip), vehicle: carboxymethylcellulose (CMC)): 56 % of control

CC(=O)OC/N=[N+](/C)[O-]
T/C (dose: 4.68 mg/kg/injection, schedule: Q01DX007 (ip), vehicle: saline): 84 % of control
T/C (dose: 9.37 mg/kg/injection, schedule: Q01DX007 (ip), vehicle: saline): 54 % of control

O=CCC(O)C(O)C(O)CO (configuration not stated)
T/C (dose: 125.0 mg/kg/injection, schedule: Q01DX007 (ip), vehicle: carboxymethylcellulose (CMC)): 86 % of control
T/C (dose: 250.0 mg/kg/injection, schedule: Q01DX007 (ip), vehicle: carboxymethylcellulose (CMC)): 75 % of control
T/C (dose: 500.0 mg/kg/injection, schedule: Q01DX007 (ip), vehicle: carboxymethylcellulose (CMC)): 76 % of control
T/C (dose: 1000.0 mg/kg/injection, schedule: Q01DX007 (ip), vehicle: carboxymethylcellulose (CMC)): 67 % of control
